Measurements: publication PMC8057092, “Cytotoxic activity of standardized extracts, a fraction, and individual secondary metabolites from fenugreek seeds against SKOV-3, HeLa and MOLT-4 cell lines” (Pharmaceutical Biology, 2021)
Converted amounts (≈) assume the structure as drawn. “Also recorded” adds a separate entry of the source. Like-named read-outs stand apart in the source and are kept apart here.

Experiments:
Type in all cases: cell-based, human
[1] = system: SKOV-3 cells; assay: RTCA (xCELLigence) cell proliferation assay, SKOV-3; conditions: for IC50: Homo sapiens, SK-OV-3, 24 h, read-out: IC50 ± SD, SKOV-3; for IC50 / IC50 ± SD, SKOV-3: RTCA, 24 h; for Selectivity index (SI), SKOV-3: SI = IC50 HaCaT/IC50 SKOV-3, from RTCA results
Procedure: (§1) The human cervical (HeLa S3) and ovarian (SKOV-3) adenocarcinomas, acute human lymphoblastic leukaemia (MOLT-4) cell lines and human keratinocytes (HaCaT) were obtained from the American Type Culture Collection (ATCC, Manassas, VA, USA). The HeLa and HaCaT cells were cultured in Dulbecco’s Modified Eagle’s Medium (DMEM), SKOV-3 and MOLT-4 cells were cultured in McCoy’s 5 A and RPMI 1640 Media, respectively. All the media were supplemented with 10% (v/v) foetal bovine serum (FBS), 2 mM L-glutamine (except for McCoy’s 5 A), 100 units/mL of penicillin, 100 µg/mL of streptomycin (Sigma-Aldrich), and were kept at 37 °C in a humidified 5% CO2 incubator.
(§2) The xCELLigence Real-Time Cell Analyzer Dual Plate (RTCA DP, ACEA Biosciences, San Diego, CA, USA) was used for monitoring of viability of adherent cells (HeLa, SKOV-3 and HaCaT) treated with the extracts (A, B), fraction C and sapogenins for 24 h. The cells were seeded at a density of 2 × 10^4 cells/well into E-plate 16 (ACEA Biosciences). When the cells entered log phase, the extracts, fraction and steroidal saponins were added in the final concentration range of 5.0–120.0 µg/mL, 5.0–100.0 µg/mL, and 1.0–50.0 µg/mL, respectively. The range of concentrations was selected experimentally to obtain symmetrical sigmoidal shape of dose-response curves generated by RTCA software v. 1.2.1 (ACEA Biosciences). The maximal concentrations of the extract A, fraction and compounds solvents in the RTCA experiments were 4.0% (v/v) for methanol and 0.8% (v/v) for DMSO. To obtain viability profiles and calculate IC50 values, we used the RTCA software v. 1.2.1. All the experiments were performed in duplicate, in three independent repeats.

[2] = system: HaCaT cells; assay: MTT assay, HaCaT keratinocytes; conditions: 24 h; for IC50: Homo sapiens, HaCaT, read-out: IC50 ± SD, HaCaT
Procedure: (§3) The human cervical (HeLa S3) and ovarian (SKOV-3) adenocarcinomas, acute human lymphoblastic leukaemia (MOLT-4) cell lines and human keratinocytes (HaCaT) were obtained from the American Type Culture Collection (ATCC, Manassas, VA, USA). […] All the media were supplemented with 10% (v/v) foetal bovine serum (FBS), 2 mM L-glutamine (except for McCoy’s 5 A), 100 units/mL of penicillin, 100 µg/mL of streptomycin (Sigma-Aldrich), and were kept at 37 °C in a humidified 5% CO2 incubator. The viability of all the cells was determined by 3-(4,5-dimethylthiazol-2-yl)-2,5-diphenyltetrazolium bromide (MTT) assay. […] The range of concentrations was selected experimentally to obtain symmetrical sigmoidal shape of dose-response curves generated by GraFit v. 7 (Erithacus Software, West Sussex, UK). […] Following treatment, the media with the extracts, fraction and compounds were removed and replaced with fresh media with MTT (0.5 mg/mL). After 3 h of incubation, the absorption of the formazan solution was measured at 570 nm with a plate reader (Epoch, BioTek, Winooski, VT, USA). The results are expressed as IC50 mean values (±SD, standard deviation) of at least two independent experiments, in six repetitions.

[3] = system: HeLa cells; assay: MTT assay, HeLa; conditions: for IC50: Homo sapiens, HeLa, read-out: IC50 ± SD, HeLa; for IC50 / IC50 ± SD, HeLa: 24 h; for Selectivity index (SI), HeLa: SI = IC50 HaCaT/IC50 HeLa, from MTT results
Procedure: as §3

[4] = system: HaCaT cells; assay: RTCA (xCELLigence) cell proliferation assay, HaCaT; conditions: 24 h; for IC50: Homo sapiens, HaCaT, read-out: IC50 ± SD, HaCaT
Procedure: as §1, §2

[5] = system: SKOV-3 cells; assay: MTT assay, SKOV-3; conditions: for IC50: Homo sapiens, read-out: IC50 ± SD, SKOV-3; for Selectivity index (SI), SKOV-3: SI = IC50 HaCaT/IC50 SKOV-3, from MTT results
Procedure: as §3

[6] = system: SKOV-3, HeLa and MOLT-4 cell lines; assay: Cytotoxicity (MTT) on the tested cell lines, stated jointly; conditions: for cytotoxic activity, in words: NCI guideline: cytotoxic if IC50 under 20–30 μg/mL; for IC50: Homo sapiens, read-out: IC50, tested cell lines
Procedure: The viability of all the cells was determined by 3-(4,5-dimethylthiazol-2-yl)-2,5-diphenyltetrazolium bromide (MTT) assay. […] The range of concentrations was selected experimentally to obtain symmetrical sigmoidal shape of dose-response curves generated by GraFit v. 7 (Erithacus Software, West Sussex, UK). […] Following treatment, the media with the extracts, fraction and compounds were removed and replaced with fresh media with MTT (0.5 mg/mL). After 3 h of incubation, the absorption of the formazan solution was measured at 570 nm with a plate reader (Epoch, BioTek, Winooski, VT, USA). The results are expressed as IC50 mean values (±SD, standard deviation) of at least two independent experiments, in six repetitions. To determine the cytotoxic selectivity of the extracts, fraction and compounds, the selectivity index (SI) was calculated according to the formula: SI = IC50^(non-cancer cells)/IC50^(cancer cells) (Table 1).

[7] = system: HeLa cells; assay: RTCA (xCELLigence) cell proliferation assay, HeLa; conditions: for IC50: Homo sapiens, HeLa, read-out: IC50 ± SD, HeLa; for Selectivity index (SI), HeLa: SI = IC50 HaCaT/IC50 HeLa, from RTCA results
Procedure: as §1, §2

[8] = MTT, stated jointly for the tested cell lines

C[C@@H]1CC[C@@]2(OC1)O[C@H]1C[C@H]3[C@@H]4CC=C5C[C@@H](O)CC[C@]5(C)[C@H]4CC[C@]3(C)[C@H]1[C@@H]2C [Diosgenin]
IC50 [1]: ~20 µg/mL (≈ 48.2 µM) | IC50 ± SD, SKOV-3 [1]: 16.90 ± 2.89 µg/mL (≈ 40.8 µM) | Selectivity index (SI), SKOV-3 [1]: 1.38 | IC50 ([2]; MTT): 12.4 ± 0.5 µg/mL (≈ 29.9 µM) | IC50 ([3]; MTT): 16.3 ± 0.26 µg/mL (≈ 39.3 µM) | Selectivity index (SI), HeLa [3]: 0.76 | IC50 [4]: 23.4 ± 0.42 µg/mL (≈ 56.4 µM) | IC50 ([5]; SK-OV-3, MTT, 24 h): 19.3 ± 0.97 µg/mL (≈ 46.5 µM) | Selectivity index (SI), SKOV-3 [5]: 0.64 | cytotoxic activity, in words ([6]; MTT): cytotoxic; also recorded: active | IC50 ([7]; RTCA, 24 h): 28 ± 2.4 µg/mL (≈ 67.5 µM) | Selectivity index (SI), HeLa [7]: 0.84

O=c1cc(-c2ccc(O)c(O)c2)oc2cc(O)c([C@@H]3O[C@H](CO)[C@@H](O)[C@H](O)[C@H]3O)c(O)c12 [Isoorientin]
IC50 ([2]; MTT): > 50 µg/mL | IC50 ([3]; MTT): > 50 µg/mL | IC50 ([5]; SK-OV-3, MTT, 24 h): > 50 µg/mL | IC50 [6, 8]: > 50 µg/mL | cytotoxic activity, in words ([6]; MTT): inactive

O=c1cc(-c2ccc(O)c(O)c2)oc2c([C@@H]3O[C@H](CO)[C@@H](O)[C@H](O)[C@H]3O)c(O)cc(O)c12 [Orientin]
IC50 [2]: > 50 µg/mL | IC50 [3]: > 50 µg/mL | IC50 ([5]; SK-OV-3, 24 h): > 50 µg/mL | IC50 [6]: > 50 µg/mL | cytotoxic activity, in words ([6]; MTT): inactive

C[C@@H]1CC[C@@]2(OC1)O[C@H]1C[C@H]3[C@@H]4CC[C@H]5C[C@@H](O)CC[C@]5(C)[C@H]4CC[C@]3(C)[C@H]1[C@@H]2C [Tigogenin]
IC50 [1]: 28.3 ± 3.46 µg/mL (≈ 67.9 µM) | Selectivity index (SI), SKOV-3 [1]: 1.16 | IC50 ([2]; MTT): 31.1 ± 2.31 µg/mL (≈ 74.6 µM) | IC50 ([3]; MTT): 35.6 ± 3.69 µg/mL (≈ 85.4 µM) | Selectivity index (SI), HeLa [3]: 0.87 | IC50 [4]: 32.7 ± 0.07 µg/mL (≈ 78.5 µM) | IC50 ([5]; SK-OV-3, MTT, 24 h): > 50 µg/mL | IC50 ± SD, SKOV-3 ([5]; MTT, 24 h): lowest activity | Selectivity index (SI), SKOV-3 [5]: < 0.62 | cytotoxic activity, in words ([6]; MTT): active | IC50 ([7]; RTCA, 24 h): 25.1 ± 0.12 µg/mL (≈ 60.2 µM) | Selectivity index (SI), HeLa [7]: 1.30

C[n+]1cccc(C(=O)[O-])c1 [Trigonelline]
IC50 ([2]; MTT): > 50 µg/mL | IC50 ([3]; MTT): > 50 µg/mL | IC50 ([5]; SK-OV-3, MTT, 24 h): > 50 µg/mL | IC50 [6, 8]: > 50 µg/mL

O=c1cc(-c2ccc(O)cc2)oc2c([C@@H]3O[C@H](CO)[C@@H](O)[C@H](O)[C@H]3O)c(O)c([C@@H]3OC[C@@H](O)[C@H](O)[C@H]3O)c(O)c12 [Vicenin-1]
IC50 ± SD, HaCaT ([2]; MTT): >50 µg/mL | IC50 ± SD, HeLa ([3]; MTT): >50 µg/mL | IC50 ± SD, SKOV-3 ([5]; MTT, 24 h): >50 µg/mL | IC50, tested cell lines [6, 8]: > 50 µg/mL

O=c1cc(-c2ccc(O)cc2)oc2c([C@@H]3O[C@H](CO)[C@@H](O)[C@H](O)[C@H]3O)c(O)c([C@@H]3O[C@H](CO)[C@@H](O)[C@H](O)[C@H]3O)c(O)c12 [Vicenin-2]
IC50 ± SD, HaCaT ([2]; MTT): >50 µg/mL | IC50 ± SD, HeLa ([3]; MTT): >50 µg/mL | IC50 ± SD, SKOV-3 ([5]; MTT, 24 h): >50 µg/mL | IC50, tested cell lines [6, 8]: > 50 µg/mL | cytotoxic activity, in words ([6]; MTT): inactive

O=c1cc(-c2ccc(O)cc2)oc2c([C@@H]3OC[C@@H](O)[C@H](O)[C@H]3O)c(O)c([C@@H]3O[C@H](CO)[C@@H](O)[C@H](O)[C@H]3O)c(O)c12 [Vicenin-3]
IC50 ± SD, HaCaT ([2]; MTT): >50 µg/mL | IC50 ± SD, HeLa ([3]; MTT): >50 µg/mL | IC50 ± SD, SKOV-3 ([5]; MTT, 24 h): >50 µg/mL | IC50, tested cell lines [6, 8]: > 50 µg/mL | cytotoxic activity, in words ([6]; MTT): inactive

O=c1cc(-c2ccc(O)cc2)oc2c([C@@H]3O[C@H](CO)[C@@H](O)[C@H](O)[C@H]3O)c(O)cc(O)c12 [Vitexin]
IC50 [2]: > 50 µg/mL | IC50 ([5]; SK-OV-3, 24 h): > 50 µg/mL | IC50 [6]: > 50 µg/mL | cytotoxic activity, in words ([6]; MTT): inactive

C[C@H]1CC[C@@]2(OC1)O[C@H]1C[C@H]3[C@@H]4CC=C5C[C@@H](O)CC[C@]5(C)[C@H]4CC[C@]3(C)[C@H]1[C@@H]2C [Yamogenin]
IC50 ± SD, SKOV-3 [1]: 23.90 ± 1.48 µg/mL (≈ 57.6 µM) | IC50 ± SD, SKOV-3 ([1]; listed as yamogenin): about 20 μg/mL | Selectivity index (SI), SKOV-3 [1]: 0.69 | IC50 ± SD, HaCaT ([2]; MTT): 9.70 ± 0.91 µg/mL (≈ 23.4 µM) | IC50 ± SD, HeLa ([3]; MTT): 16.5 ± 0.59 µg/mL (≈ 39.8 µM) | Selectivity index (SI), HeLa [3]: 0.59 | IC50 ± SD, HaCaT [4]: 16.40 ± 1.41 µg/mL (≈ 39.6 µM) | IC50 ± SD, SKOV-3 ([5]; MTT, 24 h): 16.70 ± 0.08 µg/mL (≈ 40.3 µM) | Selectivity index (SI), SKOV-3 [5]: 0.58 | cytotoxic activity, in words ([6]; MTT): cytotoxic; also recorded: active | IC50 ± SD, HeLa ([7]; RTCA, 24 h): 19.60 ± 1.41 µg/mL (≈ 47.3 µM) | Selectivity index (SI), HeLa [7]: 0.84
